In PubChem BioAssay AID2060897 (Molecular Pharmacology Branch, DTP, NCI, 2025):
Several values for one entry are separate records, joined by “and”; a condition that tells them apart may be missing. Identical values can stand only once.

Test system: 966289-007-R4-J1-PDC complex spheroid viability
Experiment: Anticancer human tumor 966289-007-R4-J1-PDC patient-derived pancreatic adenocarcinoma cell line growth inhibition [RAS]
Details: for viability, T/C: stronger effect = lower value; active means viability on the fitted dose curve at most 10% of control; inactive means the rest
How it was run: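 Multi-cell-type spheroids: tumor cells plus HUVEC endothelial cells and mesenchymal stem cells. RAS-pathway inhibitors were combined with targeted agents, each dosed in half-log steps down from clinical Cmax, or from 10 microM when Cmax was unknown.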

[1] = curve of first compound, second compound 0.000949 µM
[2] = curve of first compound, second compound 0.003 µM
[3] = curve of first compound, second compound 0.00949 µM
[4] = curve of first compound, second compound 0.03 µM
[5] = curve of first compound, second compound 0.0949 µM
[6] = curve of first compound, second compound 0.3 µM
[7] = compound alone, run of 05/20/2024
[8] = second compound 0.000949 µM, first compound 0.0316 µM
[9] = second compound 0.000949 µM, first compound 0.1 µM
[10] = second compound 0.000949 µM, first compound 0.316 µM
[11] = second compound 0.000949 µM, first compound 1 µM
[12] = second compound 0.003 µM, first compound 0.0316 µM
[13] = second compound 0.003 µM, first compound 0.1 µM
[14] = second compound 0.003 µM, first compound 0.316 µM
[15] = second compound 0.003 µM, first compound 1 µM
[16] = second compound 0.00949 µM, first compound 0.0316 µM
[17] = second compound 0.00949 µM, first compound 0.1 µM
[18] = second compound 0.00949 µM, first compound 0.316 µM
[19] = second compound 0.00949 µM, first compound 1 µM
[20] = second compound 0.03 µM, first compound 0.0316 µM
[21] = second compound 0.03 µM, first compound 0.1 µM
[22] = second compound 0.03 µM, first compound 0.316 µM
[23] = second compound 0.03 µM, first compound 1 µM
[24] = second compound 0.0949 µM, first compound 0.0316 µM
[25] = second compound 0.0949 µM, first compound 0.1 µM
[26] = second compound 0.0949 µM, first compound 0.316 µM
[27] = second compound 0.0949 µM, first compound 1 µM
[28] = second compound 0.3 µM, first compound 0.0316 µM
[29] = second compound 0.3 µM, first compound 0.1 µM
[30] = second compound 0.3 µM, first compound 0.316 µM
[31] = second compound 0.3 µM, first compound 1 µM
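Further: spheroids exposed to agents for one week before readout.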
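Wherever viability, T/C is given: percent viability relative to DMSO vehicle control wells as 100%.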

CC1(C)CCC(Nc2ncc(C(F)(F)F)c(-c3c[nH]c4c(P(C)(C)=O)c(C#N)ccc34)n2)CN1 (centres undefined) + CCn1c(-c2cc(N3CCN(C)CC3)cnc2C(C)OC)c2c3cc(ccc31)-c1csc(n1)CC(NC(=O)C1CC1C)C(=O)N1CCCC(N1)C(=O)OCC(C)(C)C2
6.78 nM: IC50 [2]
inactive: viability, T/C (second compound 0.000949 µM, first compound 0.000949 µM) 124% | viability, T/C (second compound 0.000949 µM, first compound 0.003 µM) 104% | viability, T/C (second compound 0.000949 µM, first compound 0.00949 µM) 29% | viability, T/C (second compound 0.000949 µM, first compound 0.03 µM) 14.5% | viability, T/C (second compound 0.000949 µM, first compound 0.0949 µM) 8.71% | viability, T/C (second compound 0.000949 µM, first compound 0.3 µM) 9.97% | viability, T/C (second compound 0.003 µM, first compound 0.000949 µM) 134% | viability, T/C (second compound 0.003 µM, first compound 0.003 µM) 99.9% | viability, T/C (second compound 0.003 µM, first compound 0.00949 µM) 29.9% | viability, T/C (second compound 0.003 µM, first compound 0.03 µM) 8.54% | viability, T/C (second compound 0.00949 µM, first compound 0.000949 µM) 130% | viability, T/C (second compound 0.00949 µM, first compound 0.003 µM) 116% | viability, T/C (second compound 0.00949 µM, first compound 0.00949 µM) 26% | viability, T/C (second compound 0.00949 µM, first compound 0.03 µM) 14.3% | viability, T/C (second compound 0.00949 µM, first compound 0.0949 µM) 12.3% | viability, T/C (second compound 0.00949 µM, first compound 0.3 µM) 11.2% | viability, T/C (second compound 0.03 µM, first compound 0.000949 µM) 113% | viability, T/C (second compound 0.03 µM, first compound 0.003 µM) 115% | viability, T/C (second compound 0.03 µM, first compound 0.00949 µM) 34% | viability, T/C (second compound 0.03 µM, first compound 0.03 µM) 16.7% | viability, T/C (second compound 0.03 µM, first compound 0.0949 µM) 12.3% | viability, T/C (second compound 0.03 µM, first compound 0.3 µM) 10.1% | viability, T/C (second compound 0.0949 µM, first compound 0.000949 µM) 122% | viability, T/C (second compound 0.0949 µM, first compound 0.003 µM) 139% | viability, T/C (second compound 0.0949 µM, first compound 0.00949 µM) 27.6% | viability, T/C (second compound 0.0949 µM, first compound 0.03 µM) 12.7% | viability, T/C (second compound 0.0949 µM, first compound 0.0949 µM) 13.7% | viability, T/C (second compound 0.0949 µM, first compound 0.3 µM) 9.77% | viability, T/C (second compound 0.3 µM, first compound 0.000949 µM) 128% | viability, T/C (second compound 0.3 µM, first compound 0.003 µM) 86.9% | viability, T/C (second compound 0.3 µM, first compound 0.00949 µM) 27.7% | viability, T/C (second compound 0.3 µM, first compound 0.03 µM) 12.8% | viability, T/C (second compound 0.3 µM, first compound 0.0949 µM) 12.7% | viability, T/C (second compound 0.3 µM, first compound 0.3 µM) 11.7%
7.53 nM: IC50 [4]
7.39 nM: IC50 [5]
6.97 nM: IC50 [3]
6.14 nM: IC50 [6]
6.91 nM: IC50 [1]
active: viability, T/C (second compound 0.003 µM, first compound 0.0949 µM) 10.7% | viability, T/C (second compound 0.003 µM, first compound 0.3 µM) 9.36%

CCn1c(-c2cc(N3CCN(C)CC3)cnc2C(C)OC)c2c3cc(ccc31)-c1csc(n1)CC(NC(=O)C1CC1C)C(=O)N1CCCC(N1)C(=O)OCC(C)(C)C2 (centres undefined)
> 300 nM: IC50 [7]
inactive: viability, T/C (compound 0.000949 µM) 97.8% [middle of 8 runs]

C=CC(=O)N1CCN(c2nc(OCC3CCCN3C)nc3c(F)c(-c4nc(N)cc(C)c4C(F)(F)F)c(Cl)cc23)C(C)C1 (centres undefined) + CCn1c(-c2cc(N3CCN(C)CC3)cnc2C(C)OC)c2c3cc(ccc31)-c1csc(n1)CC(NC(=O)C1CC1C)C(=O)N1CCCC(N1)C(=O)OCC(C)(C)C2
inactive: viability, T/C (second compound 0.000949 µM, first compound 0.00316 µM) 131% | viability, T/C (second compound 0.000949 µM, first compound 0.01 µM) 119% | viability, T/C [8] 138% | viability, T/C [9] 69.5% | viability, T/C [10] 77.9% | viability, T/C [11] 94.2% | viability, T/C (second compound 0.003 µM, first compound 0.00316 µM) 115% | viability, T/C (second compound 0.003 µM, first compound 0.01 µM) 138% | viability, T/C [12] 83.6% | viability, T/C [13] 78.6% | viability, T/C [14] 85.3% | viability, T/C [15] 86.1% | viability, T/C (second compound 0.00949 µM, first compound 0.00316 µM) 101% | viability, T/C (second compound 0.00949 µM, first compound 0.01 µM) 111% | viability, T/C [16] 105% | viability, T/C [17] 74.1% | viability, T/C [18] 90.3% | viability, T/C [19] 94.4% | viability, T/C (second compound 0.03 µM, first compound 0.00316 µM) 80.2% | viability, T/C (second compound 0.03 µM, first compound 0.01 µM) 124% | viability, T/C [20] 108% | viability, T/C [21] 82% | viability, T/C [22] 110% | viability, T/C [23] 87.7% | viability, T/C (second compound 0.0949 µM, first compound 0.00316 µM) 102% | viability, T/C (second compound 0.0949 µM, first compound 0.01 µM) 128% | viability, T/C [24] 98.3% | viability, T/C [25] 104% | viability, T/C [26] 125% | viability, T/C [27] 103% | viability, T/C (second compound 0.3 µM, first compound 0.00316 µM) 79% | viability, T/C (second compound 0.3 µM, first compound 0.01 µM) 137% | viability, T/C [28] 128% | viability, T/C [29] 97.8% | viability, T/C [30] 135% | viability, T/C [31] 106%
> 1000 nM: IC50 [1] | IC50 [2] | IC50 [3] | IC50 [4] | IC50 [5] | IC50 [6]

Cc1nc(N2CCC3(CC2)COC(C)C3N)c(CO)nc1Sc1ccnc(N)c1Cl (centres undefined)
inactive: viability, T/C (compound 0.316 µM) 108% [middle of 4 runs] | viability, T/C (compound 1 µM) 102% (2×) and 73.6% and 119% | viability, T/C (compound 10 µM) 95.5% [middle of 4 runs]
> 10000 nM: IC50 (curve of compound)

CCn1c(-c2cccnc2C(C)OC)c2c3cc(ccc31)N1CCOC(CC(NC(=O)C(C(C)C)N(C)C(=O)C3(F)CCN(C(=O)C#CC(C)(C)N(C)C)CC3)C(=O)N3CCCC(N3)C(=O)OCC(C)(C)C2)C1 (centres undefined)
inactive: viability, T/C (compound 0.0949 µM) 83.6% [middle of 8 runs]
> 300 nM: IC50 [7]

CC(C)NCC(C(=O)N1CCN(c2ncnc3c2C(C)CC3O)CC1)c1ccc(Cl)cc1 (centres undefined) + CCn1c(-c2cc(N3CCN(C)CC3)cnc2C(C)OC)c2c3cc(ccc31)-c1csc(n1)CC(NC(=O)C1CC1C)C(=O)N1CCCC(N1)C(=O)OCC(C)(C)C2
4070 nM: IC50 [6]
4790 nM: IC50 [4]
5060 nM: IC50 [3]
2990 nM: IC50 [5]
5850 nM: IC50 [1]
4530 nM: IC50 [2]
inactive: viability, T/C [8] 115% | viability, T/C [9] 76.5% | viability, T/C [10] 119% | viability, T/C [11] 83.1% | viability, T/C (second compound 0.000949 µM, first compound 3.16 µM) 68.4% | viability, T/C (second compound 0.000949 µM, first compound 10 µM) 35.2% | viability, T/C [12] 106% | viability, T/C [13] 92.5% | viability, T/C [14] 91.8% | viability, T/C [15] 95.3% | viability, T/C (second compound 0.003 µM, first compound 3.16 µM) 58.1% | viability, T/C (second compound 0.003 µM, first compound 10 µM) 32.2% | viability, T/C [16] 85.5% | viability, T/C [17] 98.6% | viability, T/C [18] 103% | viability, T/C [19] 97.2% | viability, T/C (second compound 0.00949 µM, first compound 3.16 µM) 61.3% | viability, T/C (second compound 0.00949 µM, first compound 10 µM) 33.6% | viability, T/C [20] 75.1% | viability, T/C [21] 97.4% | viability, T/C [22] 99.2% | viability, T/C [23] 97.6% | viability, T/C (second compound 0.03 µM, first compound 3.16 µM) 61.6% | viability, T/C (second compound 0.03 µM, first compound 10 µM) 29.4% | viability, T/C [24] 77.1% | viability, T/C [25] 90.7% | viability, T/C [26] 113% | viability, T/C [27] 92.7% | viability, T/C (second compound 0.0949 µM, first compound 3.16 µM) 47.9% | viability, T/C (second compound 0.0949 µM, first compound 10 µM) 27.3% | viability, T/C [28] 83.7% | viability, T/C [29] 102% | viability, T/C [30] 112% | viability, T/C [31] 98.3% | viability, T/C (second compound 0.3 µM, first compound 3.16 µM) 57.4% | viability, T/C (second compound 0.3 µM, first compound 10 µM) 23.8%
